Reference: patent US11413261B2, “Pharmaceutical composition for treating cancer comprising lactate metal salt” (METIMEDI PHARMACEUTICALS CO., LTD, priority 2014, dated 2022)

Key:
[1] = test system: melanoma cell lines (SKMEL-02 and SKMEL-28); assay: Cell migration of melanoma cell lines; type: cell-based; details: 2.5 mM, 24 hours after insert removal, vs untreated
Method: A colorectal cancer cell line HCT-116 with the cell number of 4×10^5 cells was inoculated into a culture container at the center of which an ibidi culture insert having a thickness of 500 μm was placed, and treated with 2.5 mM calcium lactate and then cultured for 24 hours. Then, the insert was removed and further cultured for 12 hours to analyze migration of the cancer cells to a site where the insert was removed using a JuLi Br, Live cell analyzer (NanoEnTek Inc., South Korea) (FIG. 18). In this case, a colorectal cancer cell line cultured without treating with calcium lactate was used as a control group.
Using the same method as Example 8-1, with melanoma cell lines (SKMEL-02 and SKMEL-28) instead of the colorectal cancer cell line and further cultured for 24 hours after removal of the insert was performed, the effect of calcium lactate on migration of the melanoma cell lines was examined (FIG. 20).

[2] = test system: colorectal cancer cell (HT-29 or HCT-116); assay: Tumor volume in animal model treated with radiation and calcium lactate; type: in vivo, mice
Method: A colorectal cancer cell (HT-29 or HCT-116) was subcutaneously implanted into the flank of mice. The mice were bred until the colorectal cancer cell grew to about 5 mm. Then, four groups were set up; a control group untreated with calcium lactate for 30 days, an experimental group 11 (intra tumor, I.T) injected with 2.5 mM calcium lactate, an experimental group 12 (IR) irradiated with radiation of 2 Gy five times using an X-RAD 320 X-ray irradiator (300 kVp) equipped with a 2.0 mm aluminum filter, and an experimental group 13 (CaLa+IR) irradiated with radiation of 2 Gy five times and injected with 2.5 mM calcium lactate at the same time (FIG. 36).
The volumes of colorectal cancer tissues extracted from the mice of the control group or each of the experimental groups set up in Example 11-1 were measured over time and compared with each other (FIGS. 37a and 37b).

[3] = test system: human colorectal cancer cell line (HT-29); assay: Colony-forming ability, anticancer drug in combination with calcium lactate (6-well plates); type: cell-based; details: 2.5 mM calcium lactate alone, vs control
Method: (§1) Human colorectal cancer cell line (HT-29) with the cell number of 1×10^3 cells were seeded into an RPMI1640 medium in each of 6-well plates. […]. Then, the colony-forming abilities of the cells were compared. In this case, a human colorectal cancer cell line (HT-29) untreated with any drug was used as a control group (FIGS. 46a and 46b).
as §1, with “48a” for “46a”, “48b).” for “46b).”
as §1, with “(FIG. 55).” for “(FIGS. 46a and 46b).”

[4] = test system: human melanoma cell lines (SKMEL-02 and SKMEL-28); assay: Colony-forming ability of melanoma cell lines in solid medium; type: cell-based
Method: Firstly, human colorectal cancer cell lines (HCT-116, HT-29, and DLD-1) were inoculated into solid mediums including various concentrations (0 mM, 0.5 mM, 1.5 mM, or 2.5 mM) of calcium lactate and cultured for 10 days. After the completion of the culture, the cells were immobilized and stained with hematoxylin. Then, the number of cancer cells formed into colonies was counted (FIG. 23).
Then, using the same method as described above, human melanoma cell lines (SKMEL-02 and SKMEL-28) were inoculated into solid mediums including various concentrations (1 mM, 2.5 mM, or 5 mM) of calcium lactate and culture was performed, and the number of cancer cells formed into colonies were counted (FIGS. 24a and 24b).

β-catenin = β-catenin and activated β-catenin protein expression in breast cancer cell lines; type: cell-based, human; details: MCF-7 and MDA-MB-231; with increasing concentration
Method: Using the same method as that of Example 3-1 the expression levels of β-catenin and activated β-catenin depending on the concentration of calcium lactate were compared at the protein expression level (FIG. 6) with a human breast cancer cell line (MCF-7) cultured in a cancer cell culture medium (RPMI1640 medium including 10% FBS and 1% penicillin/streptomycin) at 37° C. with 5% CO2 and a human breast cancer cell line (MDA-MB-231) cultured in another cancer cell culture medium (DMEM medium including 10% FBS and 1% penicillin/streptomycin) at 37° C. with 5% CO2.

[5] = test system: human colorectal cancer stem cell line; assay: Conformational change of sphere of colorectal cancer stem cell line; type: cell-based; details: vs DMSO control
Method: A human colorectal cancer stem cell line was inoculated into a stem cell culture medium (medium including 1% penicillin/streptomycin and 50 times B27 and including a DMEM medium and an F12 medium mixed at 1:1) and cultured at 37° C. with 5% CO2. The cultured colorectal cancer stem cell line was treated with calcium lactate and then, it was checked whether or not there is the conformational change of a sphere formed by the stem cells (FIG. 22). In this case, a cancer cell treated with DMSO instead of calcium lactate was used as a control group.

[6] = test system: human colorectal cancer cell line HCT-116; details: 5 mM calcium lactate individually, 10 days
[7] = test system: HIF-1α (hypoxia inducible factor 1α); assay: HIF-1α protein expression (Western blot); type: cell-based, human; details: HCT-116 and HT-29, hypoxia condition
Method: Human colorectal cancer cell lines (HCT-116 and HT-29) were cultured for 24 hours, under normoxia or hypoxia condition either treated or not treated with 2.5 mM calcium lactate. Then, a Western blot using an anti-HIF-1α antibody was conducted to each of the cultured cancer cell lines (upper part of FIG. 15).
Then, the human colorectal cancer cell lines (HCT-116 and HT-29) were treated with various concentrations (0.5 mM, 1.5 mM and 2.5 mM) of the calcium lactate under hypoxia condition and cultured and change in expression levels of HIF-1α in a nucleus of a cancer cell was measured (lower part of FIG. 15).

[8] = test system: human colorectal cancer cell lines (HCT-116, HT-29, and DLD-1); assay: Viability of colorectal cancer cell lines in plate with low adhesivity; type: cell-based; details: HCT-116, HT-29, DLD-1, 1.5 or 2.5 mM (untreated about 5%)
Method: Human colorectal cancer cell lines (HCT-116, HT-29, and DLD-1) were inoculated into a 6-well plate with low adhesivity and then cultured treating with various concentrations (0 mM, 1.5 mM, or 2.5 mM) of calcium lactate. Then, survival rates of the cells were compared (FIG. 26).

SMILES: CC(O)C(=O)[O-].CC(O)C(=O)[O-].[Ca+2] (centres unmarked) [calcium lactate]
- cell migration (metastatic capacity) [1]: relatively low levels of metastasis
- growth of tumor ([2]; 2.5 mM calcium lactate I.T. individually, vs control): inhibited
- growth of tumor ([2]; 2.5 mM calcium lactate in combination with radiation of 2 Gy five times): inhibited to the lowest level
- colony-forming ability [3]: suppressed
- number of colonies ([4]; SKMEL-02, 5 mM (untreated 105 to 168)): about 49 colonies
- number of colonies ([4]; SKMEL-02 and SKMEL-28, with increasing concentration (1, 2.5, 5 mM)): decreased
- number of colonies ([4]; SKMEL-28, 5 mM): colony was not formed
- protein expression levels of activated β-catenin (β-catenin): decreased
- protein expression levels of β-catenin (β-catenin): decreased
- conformation of the sphere [5]: destructed
- survival rate [6]: about 60%
- protein expression levels of HIF-1α ([7]; 2.5 mM, 24 hours): not expressed
- expression levels of HIF-1α in a nucleus of a cancer cell ([7]; 0.5, 1.5, 2.5 mM): suppresses the expression levels of HIF-1α concentration dependently
- cell apoptosis rate [8]: about 90%
